pEC50: −log10 of the molar value. Entries after “also recorded” stand apart in the source; their conditions may differ.

The term pEC50 denotes −log10 of the EC50, conventionally taken in molar units.

The target of one experiment is T1, S1P1 receptor (Homo sapiens, UniProt P21453).
T1 construct: expressed in transfected cells; host or cells: CHO-K1 (ATCC CCL-61), stably transfected
The experiment is described as follows: HTRF assay for direct cAMP measurement (S1P1 receptor agonists). The class given is cell-based. The following applies: recombinant CHO-K1 cells stably transfected with S1P1 receptor; decrease of cAMP concentration. An excerpt: Compounds were screened for agonists of S1P1 receptor (e.g., human S1P1 receptor) using HTRF® assay for direct cAMP measurement (Gabriel et al, ASSAY and Drug Development Technologies, 1:291-303, 2003) and recombinant CHO-K1 cells stably transfected with S1P1 receptor. CHO-K1 cells were obtained from ATCC® (Manassas, Va.; Catalog #CCL-61). An agonist of S1P1 receptor was detected in HTRF® assay for direct cAMP measurement as a compound which decreased cAMP concentration. HTRF® assay also was used to determine EC50 values for S1P1 receptor agonists.
Principle of the assay: HTRF® assay kit was purchased from Cisbio-US, Inc. (Bedford, Mass.; Catalog #62AM4PEC). The HTRF® assay supported by the kit is a competitive immunoassay between endogenous cAMP produced by the CHO-K1 cells and tracer cAMP labeled with the dye d2. The tracer binding is visualized by a monoclonal anti-cAMP antibody labeled with Cryptate. The specific signal (i.e., fluorescence resonance energy transfer, FRET) is inversely proportional to the concentration of unlabeled cAMP in the standard or sample.
The fluorescence ratio of the samples (test compound or compound buffer) was calculated and used to deduce respective cAMP concentrations by reference to the cAMP standard curve.
Setup of the assay: HTRF® assay was carried out using a two-step protocol essentially according to the kit manufacturer's instructions, in 20 μL total volume per well in 384-well plate format (ProxiPlates; PerkinElmer, Fremont, Calif.; catalog #6008280). To each of the experimental wells was transferred 1500 recombinant CHO-K1 cells in 5 μL phosphate buffered saline containing calcium chloride and magnesium chloride (“PBS+”; Invitrogen, Carlsbad, Calif.; catalog #14040) supplemented with IBMX (250 μM) and rolipram (20 μM) (phosphodiesterase inhibitors; Sigma-Aldrich, St. Louis, Mo.; catalog #I5879 and catalog #R6520, respectively), followed by test compound in 5 μL compound buffer (PBS+ supplemented with […] (water-soluble forskolin derivative; SignaGen Laboratories, Gaithersburg, Md.; catalog #PKI-NKH477-010)) or 5 μL compound buffer. The plate was then incubated at room temperature for 1 hour. To each well was then added 5 μL cAMP-d2 conjugate in lysis buffer and 5 μL Cryptate conjugate in lysis buffer according to the kit manufacturer's instructions. The plate was then further incubated at room temperature for 1 hour, after which the assay plate was read.
Assay readout: HTRF® readout was accomplished using a PHERAstar (BMG LABTECH Inc., Durham, N.C.) or EnVision™ (PerkinElmer, Fremont Calif.) microplate reader.
A general note: In TR-FRET formats the signal depends on donor and acceptor labels being close together.

The target in a further experiment is S1P3 receptor (Homo sapiens, UniProt Q99500). As to the kind of experiment: Cellular/functional Ca2+ assay for agonist activity on S1P3 receptor. Type of experiment: cell-based. More on the design: a human neuroblastoma cell line which endogenously expresses S1P3 (predominantly); endogenous in cells. Particulars: human neuroblastoma cell line endogenously expressing S1P3; FIG. 1. An excerpt: Of these, S1P3 and S1P2 receptors respond to agonist, such as S1P, with an intracellular calcium increase. […] Such an assay can be performed commercially, e.g. by Caliper LifeSciences (Hopkinton, Mass.).
Assay: The human neuroblastoma cells were washed and resuspended in physiological buffer. The cells were then loaded with dye that measures intracellular calcium. S1P was used as a reference agonist. Compound 52 was included in the assay as a test compound. After addition of S1P or Compound 52, fluorescence was measured at 485 nm excitation/525 nm emission every 2 s for at least 60 s. Calcium ionophore A23187 was then added as an internal positive control.

The next experiment relates to Male BALB/c mice. The experiment is described as follows: Mouse peripheral lymphocyte lowering (PLL) assay. Type of experiment: in vivo. The following applies: 1 mg/kg i.v. in 100% PEG400, 5 h post dose, compared with vehicle; *P<0.05; FIG. 2. On the procedure:
Animals: Male BALB/c mice (6 to 7 weeks of age at start of study) (Charles River Laboratories, Wilmington, Mass.) were housed four per cage and maintained in a humidity- (40-60%) and temperature- (68-72° F.) controlled facility on a 12 h:12 h light/dark cycle (lights on at 6:30 am) with free access to food (Harlan Teklad, Orange, Calif., Rodent Diet 8604) and water. Mice were allowed one week of habituation to the animal facility before testing.
PLL Assay: Mice were administered via i.v. one of the following: saline, vehicle (100% PEG400) or 1 mg/kg Compound 52 in vehicle, in a total volume of 5 ml/kg. Peripheral blood samples were collected at 5 h post dose. The mice were anesthetized with isoflurane and bled retro-orbitally (300 μL) into 1.5 ml EDTA tubes. A complete cell count (CBC) (including lymphocyte count) was obtained using CELL-DYN® 3700 (Abbott Laboratories, Abbott Park, Ill.). Results are presented in FIG. 2, in which peripheral blood lymphocyte (PBL) count is shown for the 5 hour group.

Sequence of S1P3 receptor (Q99500 whole entry): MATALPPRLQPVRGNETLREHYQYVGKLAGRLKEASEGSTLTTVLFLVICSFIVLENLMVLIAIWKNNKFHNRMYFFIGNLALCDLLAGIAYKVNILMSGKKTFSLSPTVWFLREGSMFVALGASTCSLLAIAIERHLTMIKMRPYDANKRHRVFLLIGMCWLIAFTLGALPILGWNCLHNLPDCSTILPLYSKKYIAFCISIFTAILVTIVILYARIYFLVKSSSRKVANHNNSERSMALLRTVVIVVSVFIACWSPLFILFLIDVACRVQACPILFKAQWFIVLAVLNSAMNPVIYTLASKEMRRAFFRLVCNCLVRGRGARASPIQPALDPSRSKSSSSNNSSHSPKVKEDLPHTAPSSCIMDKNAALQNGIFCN
T1 sequence (P21453 whole entry): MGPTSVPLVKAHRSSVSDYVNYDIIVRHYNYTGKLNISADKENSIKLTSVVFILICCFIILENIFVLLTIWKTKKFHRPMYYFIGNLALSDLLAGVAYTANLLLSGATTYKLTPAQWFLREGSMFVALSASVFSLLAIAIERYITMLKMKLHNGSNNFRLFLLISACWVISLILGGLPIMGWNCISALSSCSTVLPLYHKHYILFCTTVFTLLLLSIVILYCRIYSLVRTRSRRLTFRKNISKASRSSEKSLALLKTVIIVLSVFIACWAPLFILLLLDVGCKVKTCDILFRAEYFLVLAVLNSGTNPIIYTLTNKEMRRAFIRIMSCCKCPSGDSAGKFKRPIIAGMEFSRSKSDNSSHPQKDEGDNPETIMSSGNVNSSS

As for `N#Cc1cc(-c2nc(-c3ccc4[nH]c5c(c4c3)CCC5CC(=O)O)no2)ccc1OC1CCCC1` (single isomer, unassigned) [Compound 19, 2-(7-(5-(3-Cyano-4-(cyclopentyloxy)phenyl)-1,2,4-oxadiazol-3-yl)-1,2,3,4-tetrahydrocyclopenta[b]indol-3-yl)acetic Acid], the negative-log EC50 (pEC50) at S1P1 receptor was 7.73.

As to `N#Cc1cc(OCCF)cc(-c2nc(-c3ccc4[nH]c5c(c4c3)CCC5CC(=O)O)no2)c1` (stereo not shown) [Compound 32, 2-(7-(5-(3-Cyano-5-(2-fluoroethoxy)phenyl)-1,2,4-oxadiazol-3-yl)-1,2,3,4-tetrahydrocyclopenta[b]indol-3-yl)acetic Acid], the pEC50 on S1P1 receptor is 7.37.

As to `COc1ccc(-c2nc(-c3ccc4[nH]c5c(c4c3)CCC5CC(=O)O)no2)cc1C(F)(F)F` (stereo not shown) [Compound 42, 2-(7-(5-(4-Methoxy-3-(trifluoromethyl)phenyl)-1,2,4-oxadiazol-3-yl)-1,2,3,4-tetrahydrocyclopenta[b]indol-3-yl)acetic Acid], on S1P1 receptor, the pEC50 was 7.03. On the same count and under the same terms, the value for `O=C(O)CC1CCc2c1[nH]c1ccc(-c3noc(-c4ccc(OCC(F)(F)F)nc4)n3)cc21` (stereo not shown) [Compound 47, 2-(7-(5-(6-(2,2,2-Trifluoroethoxy)pyridin-3-yl)-1,2,4-oxadiazol-3-yl)-1,2,3,4-tetrahydrocyclopenta[b]indol-3-yl)acetic Acid] was 7.08; that for `NC(=O)c1cc(OC(F)(F)F)cc(-c2nc(-c3ccc4[nH]c5c(c4c3)CCC5CC(=O)O)no2)c1` (stereo not shown) [Compound 51, 2-(7-(5-(3-Carbamoyl-5-(trifluoromethoxy)phenyl)-1,2,4-oxadiazol-3-yl)-1,2,3,4-tetrahydrocyclopenta[b]indol-3-yl)acetic Acid] was 6.64. With `O=C(O)CC1CCc2c1[nH]c1ccc(-c3noc(-c4cc(C(F)(F)F)cc(C(F)(F)F)c4)n3)cc21` (stereo not shown) [Compound 52, 2-(7-(5-(3,5-Bis(trifluoromethyl)phenyl)-1,2,4-oxadiazol-3-yl)-1,2,3,4-tetrahydrocyclopenta[b]indol-3-yl)acetic Acid], the “agonist activity on S1P3 receptor (intracellular calcium)” value at S1P3 receptor was “substantially little to no activity; also recorded: no or substantially no agonist activity”. Besides, the pEC50 at S1P1 receptor is 7.12. Also, in the experiment on Male BALB/c mice, the “peripheral blood lymphocyte (PBL) count / peripheral lymphocyte lowering” value is “exhibited activity for inducing peripheral lymphocyte lowering”. In the case of `CCOc1ncc(-c2nc(-c3ccc4[nH]c5c(c4c3)CCC5CC(=O)O)no2)cc1C` (stereo not shown) [Compound 62, 2-(7-(5-(6-Ethoxy-5-methylpyridin-3-yl)-1,2,4-oxadiazol-3-yl)-1,2,3,4-tetrahydrocyclopenta[b]indol-3-yl)acetic Acid], the negative-log EC50 (pEC50) at S1P1 receptor was 6.68. Consider `CNc1ccc2oc(C[C@H]3O[C@@]4(CC[C@H]3C)O[C@H]([C@H](C)C(=O)c3ccc[nH]3)[C@H](C)C[C@H]4C)nc2c1C(=O)O` [Compound A23187, reference compound], for which the “agonist activity on S1P3 receptor (intracellular calcium)” value on S1P3 receptor is recorded as “pronounced agonist activity”.

Values taken from patent US20100273806A1, “TETRAHYDROCYCLOPENTA[B]INDOL-3-YL CARBOXYLIC ACID DERIVATIVES USEFUL IN THE TREATMENT OF AUTOIMMUNE AND INFLAMMATORY DISORDERS” (ARENA PHARMACEUTICALS, INC., priority 2007, published 2010).
